Measurements taken from paper PMC9578396, “Intrinsic Antibacterial Activity of Xeruborbactam In Vitro: Assessing Spectrum and Mode of Action” (Antimicrobial Agents and Chemotherapy, 2022).
Where two headings read alike, the source gives them in different places.

Key:
Type in all cases: cell-based
Pseudomonas aeruginosa = experiment: Broth microdilution MIC (CLSI), Pseudomonas aeruginosa
Text: (§1) (i) Panels of engineered bacterial strains containing various combinations of porin and efflux mutations were used. The construction of all the strains used in the study is described in detail in references, [44], and [45]. (ii) KPC-producing clinical isolates and their derivatives that lost KPC plasmids were used also. These strains and their origins are described in the Table S2. (iii) Finally, KPC-producing clinical isolates enriched in strains with porin mutations were used. The mutations identified include various deletions, insertions, nonsense mutations, and decreased expression. Most of the isolates were obtained from JMI Laboratories or International Health Management Associates (IHMA); they were collected in the course of global surveillance studies.
(§2) Bacterial isolates were subjected to broth microdilution susceptibility testing, performed according to Clinical and Laboratory Standards Institute (CLSI) methods ([46]), using panels prepared in-house. […] Xeruborbactam was synthesized at Qpex Biopharma, San Diego, CA. Avibactam was purchased from eNovation Chemicals LLC, Bridgewater, NJ, USA; zidebactam was from MedKoo Biosciences, Inc., Morrisville, NC, and nacubactam was from Advanced ChemBlocks, Hayward, CA. Durlobactam was synthesized at Acme Bioscience, Palo Alto, CA, USA.

Escherichia coli = experiment: Broth microdilution MIC (CLSI), Escherichia coli; details: Escherichia coli
Text: as §1, §2

Acinetobacter baumannii = experiment: Broth microdilution MIC (CLSI), Acinetobacter baumannii; details: Acinetobacter baumannii
Text: as §1, §2

Klebsiella pneumoniae = experiment: microbe, parasite or virus in culture
Text: as §1, §2

[1] = Pseudomonas aeruginosa, strain PAM1020, wild type, read-out: MIC
[2] = Pseudomonas aeruginosa, strain PAM1032, nalB (MexAB-OprM overexpression)
[3] = Pseudomonas aeruginosa, strain PAM1033, nfxB (MexCD-OprJ overexpression)
[4] = Pseudomonas aeruginosa, strain PAM1034, nfxC (MexEF-OprN overexpression)
[5] = Pseudomonas aeruginosa, strain PAM1106, mexA::Tet
[6] = Pseudomonas aeruginosa, strain PAM1154, oprM::Hg
[7] = strain ECM5497, wild type, read-out: MIC
[8] = strain ECM6502, marR (AcrAB overexpression)
[9] = strain AB1007, wild type, read-out: MIC
[10] = strain ACM1015, ΔadeIJK ΔadeABC
[11] = strain ACM1027, adeN (AdeIJK overexpression)
[12] = strain ACM1030, adeS (AdeABC overexpression)
[13] = Klebsiella pneumoniae, KPM1026a, parent, read-out: MIC
[14] = Klebsiella pneumoniae, KPM3532, TolQ::M189K
[15] = Klebsiella pneumoniae, KPM3534, TolQ::S31F
[16] = Klebsiella pneumoniae, KPM4235, TolQ::IP(183–1844)PR
[17] = Klebsiella pneumoniae, KPM4236, TolQ::TAA at aa 103
[18] = Klebsiella pneumoniae, KPM4238, TolQ::S25F
[19] = Klebsiella pneumoniae, KPM4239, TolQ::S28F
[20] = Klebsiella pneumoniae, KPM4240, TolQ::S25Y
[21] = Klebsiella pneumoniae, strain KPM1026a, wild type, read-out: MIC
[22] = Klebsiella pneumoniae, strain KPM1027, ramR, read-out: MIC
[23] = Klebsiella pneumoniae, strain KPM1171, ramR ompK36_1171, read-out: MIC
[24] = Klebsiella pneumoniae, strain KPM2040, ompK36_2040, read-out: MIC
[25] = Klebsiella pneumoniae, strain KPM2600, ΔompK35
[26] = Klebsiella pneumoniae, strain KPM2613, ΔompK35 ompK36_2040
[27] = Klebsiella pneumoniae, strain KPM2696, ΔacrB

NC(=O)[C@@H]1CC[C@@H]2CN1C(=O)N2OS(=O)(=O)O [Avibactam]
8 µg/mL: MIC (Escherichia coli; [8])
16 µg/mL: MIC (Escherichia coli; [7]) | MIC (Escherichia coli; strain ECM6001, ΔacrB) | MIC (Klebsiella pneumoniae; [13]) | MIC (Klebsiella pneumoniae; [21]) | MIC (Klebsiella pneumoniae; [22]) | MIC (Klebsiella pneumoniae; [25]) | MIC (Klebsiella pneumoniae; [27])
128 µg/mL: MIC (Pseudomonas aeruginosa; Pseudomonas aeruginosa, after inactivation of MexAB-OprM, read-out: MIC) | MIC (Pseudomonas aeruginosa; [5]) | MIC (Pseudomonas aeruginosa; [6])
> 64 µg/mL: MIC (Klebsiella pneumoniae; [14]) | MIC (Klebsiella pneumoniae; [15]) | MIC (Klebsiella pneumoniae; [16]) | MIC (Klebsiella pneumoniae; [17]) | MIC (Klebsiella pneumoniae; [18]) | MIC (Klebsiella pneumoniae; [19]) | MIC (Klebsiella pneumoniae; [20])
> 256 µg/mL: MIC (Pseudomonas aeruginosa; Pseudomonas aeruginosa, before inactivation of MexAB-OprM (wild type), read-out: MIC) | MIC (Pseudomonas aeruginosa; [1]) | MIC (Pseudomonas aeruginosa; [2]) | MIC (Pseudomonas aeruginosa; [4]) | MIC (Acinetobacter baumannii; [9]) | MIC (Acinetobacter baumannii; strain ACM1013, ΔadeIJK) | MIC (Acinetobacter baumannii; strain ACM1014, ΔadeABC) | MIC (Acinetobacter baumannii; [10]) | MIC (Acinetobacter baumannii; [11]) | MIC (Acinetobacter baumannii; [12]) | MIC (Klebsiella pneumoniae; [23])
256 µg/mL: MIC (Klebsiella pneumoniae; [24]) | MIC (Klebsiella pneumoniae; [26])
32 µg/mL: MIC (Pseudomonas aeruginosa; [3])

CO/N=C(\C(=O)N[C@@H]1C(=O)N2C(C(=O)[O-])=C(C[N+]3(C)CCCC3)CS[C@H]12)c1csc(N)n1 [Cefepime]
32 µg/mL: MIC (Acinetobacter baumannii; [12]) | MIC (Klebsiella pneumoniae; Klebsiella pneumoniae, KPM4128 (KPM3534 TolQ::S31F/KPC-3), alone) | MIC (Klebsiella pneumoniae; Klebsiella pneumoniae, KPM4130 (KPM3534 TolQ::S31F/NDM-1), alone)
16 fold: fold decrease compared to MIC of antibiotic alone (Klebsiella pneumoniae; KPM1026a, with xeruborbactam at 8 μg/mL)
256 µg/mL: MIC (Klebsiella pneumoniae; Klebsiella pneumoniae, BAA2814, KPC-3-producing KP1074 (BAA-2814), xeruborbactam none, read-out: MIC)
0.03 µg/mL: MIC (Escherichia coli; [7]) | MIC (Escherichia coli; strain ECM6001, ΔacrB) | MIC (Klebsiella pneumoniae; KPM1026a (no beta-lactamase), xeruborbactam 0 µg/ml) | MIC (Klebsiella pneumoniae; Klebsiella pneumoniae, KPM1026a, alone, read-out: MIC) | MIC (Klebsiella pneumoniae; [13]) | MIC (Klebsiella pneumoniae; [21]) | MIC (Klebsiella pneumoniae; [27])
0.125 µg/mL: MIC (Pseudomonas aeruginosa; PAM1154, xeruborbactam 2 µg/ml) | MIC (Pseudomonas aeruginosa; PAM1154, xeruborbactam 4 µg/ml) | MIC (Pseudomonas aeruginosa; [6]) | MIC (Escherichia coli; [8]) | MIC (Klebsiella pneumoniae; KP1074, with xeruborbactam 8 µg/ml) | MIC (Klebsiella pneumoniae; Klebsiella pneumoniae, KPM3534 (TolQ::S31F), alone) | MIC (Klebsiella pneumoniae; [15]) | MIC (Klebsiella pneumoniae; [16]) | MIC (Klebsiella pneumoniae; [17]) | MIC (Klebsiella pneumoniae; [18]) | MIC (Klebsiella pneumoniae; [19]) | MIC (Klebsiella pneumoniae; [20]) | MIC (Klebsiella pneumoniae; [24])
4 fold: fold decrease compared to MIC of antibiotic alone (Klebsiella pneumoniae; KPM3532 (TolQ::M189K), with xeruborbactam at 8 μg/mL) | fold decrease compared to MIC of antibiotic alone (Klebsiella pneumoniae; KPM3534 (TolQ::S31F), with xeruborbactam at 4 μg/mL)
0.002 µg/mL: MIC (Klebsiella pneumoniae; KPM1026a, xeruborbactam 8 µg/ml)
0.5 µg/mL: MIC (Pseudomonas aeruginosa; PAM1154 (oprM::Hg), xeruborbactam 0 µg/ml) | MIC (Pseudomonas aeruginosa; [1]) | MIC (Pseudomonas aeruginosa; [4]) | MIC (Klebsiella pneumoniae; KP1074, with xeruborbactam 2 µg/ml) | MIC (Klebsiella pneumoniae; Klebsiella pneumoniae, KPM1211 (KP1074 after loss of pKpQIL), read-out: MIC)
16 µg/mL: MIC (Klebsiella pneumoniae; Klebsiella pneumoniae, KPM1281 (KPM1026a/NDM-1), alone, read-out: MIC)
8 fold: fold decrease compared to MIC of antibiotic alone (Klebsiella pneumoniae; KPM3534 (TolQ::S31F), with xeruborbactam at 8 μg/mL)
1 µg/mL: MIC (Acinetobacter baumannii; AB1007, xeruborbactam 4 µg/ml, read-out: MIC) | MIC (Acinetobacter baumannii; strain ACM1014, ΔadeABC)
0.015 µg/mL: MIC (Klebsiella pneumoniae; KPM1026a, xeruborbactam 2 µg/ml) | MIC (Klebsiella pneumoniae; KPM1026a, xeruborbactam 4 µg/ml)
8 µg/mL: MIC (Acinetobacter baumannii; [11]) | MIC (Klebsiella pneumoniae; Klebsiella pneumoniae, KPM4127 (KPM3532 TolQ::M189K/KPC-3), alone) | MIC (Klebsiella pneumoniae; Klebsiella pneumoniae, KPM4129 (KPM3532 TolQ::M189K/NDM-1), alone)
2- to 8 fold: fold below the MIC that corresponds to complete inhibition of KPC (Klebsiella pneumoniae; KP1074, in the presence of 8 μg/mL xeruborbactam)
4 µg/mL: MIC (Pseudomonas aeruginosa; [2]) | MIC (Pseudomonas aeruginosa; [3]) | MIC (Acinetobacter baumannii; [9]) | MIC (Acinetobacter baumannii; strain ACM1013, ΔadeIJK) | MIC (Klebsiella pneumoniae; Klebsiella pneumoniae, KPM1271 (KPM1026a/KPC-3), alone, read-out: MIC)
2 µg/mL: MIC (Acinetobacter baumannii; AB1007 (no beta-lactamase), xeruborbactam 0 µg/ml, read-out: MIC) | MIC (Acinetobacter baumannii; AB1007, xeruborbactam 2 µg/ml, read-out: MIC) | MIC (Klebsiella pneumoniae; [23])
0.06 µg/mL: MIC (Pseudomonas aeruginosa; PAM1154, xeruborbactam 8 µg/ml) | MIC (Klebsiella pneumoniae; Klebsiella pneumoniae, KPM3532 (TolQ::M189K), alone) | MIC (Klebsiella pneumoniae; [14])
2 fold: fold decrease compared to MIC of antibiotic alone (Klebsiella pneumoniae; KPM1026a, with xeruborbactam at 4 μg/mL) | fold decrease compared to MIC of antibiotic alone (Klebsiella pneumoniae; KPM3532 (TolQ::M189K), with xeruborbactam at 4 μg/mL)
0.25 µg/mL: MIC (Pseudomonas aeruginosa; [5]) | MIC (Acinetobacter baumannii; AB1007, xeruborbactam 8 µg/ml, read-out: MIC) | MIC (Acinetobacter baumannii; [10]) | MIC (Klebsiella pneumoniae; KP1074, with xeruborbactam 4 µg/ml) | MIC (Klebsiella pneumoniae; [22]) | MIC (Klebsiella pneumoniae; [25]) | MIC (Klebsiella pneumoniae; [26])
